Activity calls are given as the source filed them. Cut-off read from the data, not from the text of the source, for most assays here: actives have a measured EC50 and inactives only a lower limit.
Columns and labels:
[1] = molecular target: Paired box protein Pax-8 (Homo sapiens, UniProt Q06710); experiment: PAX8 transcriptional activity inhibition in RMG-I – RMG-I cells, luciferase, cherry-pick, dose response (AID 687027); type: functional, cell-based;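 note: luciferase reporter driven by Pax8 target thyroperoxidase promoter measured by SteadyGlo luminescence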
Sequence of Paired box protein Pax-8 (Q06710 whole entry): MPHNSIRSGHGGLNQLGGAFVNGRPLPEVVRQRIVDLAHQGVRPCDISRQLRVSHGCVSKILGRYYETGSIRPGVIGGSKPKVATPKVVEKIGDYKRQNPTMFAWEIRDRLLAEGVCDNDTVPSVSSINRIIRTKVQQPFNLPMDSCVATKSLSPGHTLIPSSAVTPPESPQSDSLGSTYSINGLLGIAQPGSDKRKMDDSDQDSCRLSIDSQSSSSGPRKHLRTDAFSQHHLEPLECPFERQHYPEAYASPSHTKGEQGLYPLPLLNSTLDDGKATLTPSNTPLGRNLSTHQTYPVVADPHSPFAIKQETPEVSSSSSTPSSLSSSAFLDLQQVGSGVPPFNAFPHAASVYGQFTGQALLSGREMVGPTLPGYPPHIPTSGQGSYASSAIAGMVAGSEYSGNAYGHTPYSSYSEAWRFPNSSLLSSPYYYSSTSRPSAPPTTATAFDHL

[2] = Luminescence Cell-Based Dose Response HTS to Identify Inhibitors of 5'UTR Stem-Loop Driven Prion Protein mRNA Translation in H4 Neuroglioblastoma Cells. [Related pubchem assays: 1827 (Project Summary), 1813 (Primary HTS)]; type: functional
[3] = luciferase reporter signal suppression in cells – H4 neuroglioma cells, luminescence, dose response (AID 1990); type: functional, cell-based
[4] = alpha-synuclein stem-loop luciferase translation blockers – H4 neuroglioma cells, luminescence, confirmation (AID 1988); type: functional, cell-based
[5] = molecular target: T1, Replicative DNA helicase DnaB (Mycobacterium tuberculosis, UniProt P9WMR3); experiment: DnaB intein splicing inhibitors, dose response, biochemical, cell-free fluorescence (AID 449749); type: functional
T1 sequence (P9WMR3 whole entry): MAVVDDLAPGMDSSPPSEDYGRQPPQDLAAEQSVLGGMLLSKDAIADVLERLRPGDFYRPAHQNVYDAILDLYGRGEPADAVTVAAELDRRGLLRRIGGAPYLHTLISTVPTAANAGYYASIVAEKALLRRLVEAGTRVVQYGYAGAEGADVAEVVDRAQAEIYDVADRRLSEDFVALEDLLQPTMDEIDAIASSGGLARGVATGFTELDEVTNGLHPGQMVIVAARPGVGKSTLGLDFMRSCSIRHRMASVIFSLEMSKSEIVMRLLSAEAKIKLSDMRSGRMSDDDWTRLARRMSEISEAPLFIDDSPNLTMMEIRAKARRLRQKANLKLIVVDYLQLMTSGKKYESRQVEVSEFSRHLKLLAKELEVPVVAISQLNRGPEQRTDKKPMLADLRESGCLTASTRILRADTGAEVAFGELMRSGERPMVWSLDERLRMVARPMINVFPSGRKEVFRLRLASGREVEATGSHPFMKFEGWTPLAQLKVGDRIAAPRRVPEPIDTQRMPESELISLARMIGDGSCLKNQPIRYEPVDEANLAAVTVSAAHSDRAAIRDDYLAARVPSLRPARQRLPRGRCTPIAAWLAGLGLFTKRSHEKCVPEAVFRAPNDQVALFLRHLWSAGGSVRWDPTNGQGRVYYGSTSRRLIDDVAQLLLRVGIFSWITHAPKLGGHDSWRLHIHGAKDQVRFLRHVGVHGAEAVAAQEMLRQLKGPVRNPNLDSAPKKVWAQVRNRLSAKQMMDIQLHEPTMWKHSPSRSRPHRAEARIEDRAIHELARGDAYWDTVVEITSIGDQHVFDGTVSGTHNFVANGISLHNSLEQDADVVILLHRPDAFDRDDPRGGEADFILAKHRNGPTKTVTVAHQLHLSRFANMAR

[6] = molecular target: T2, Protein RecA (Mycobacterium tuberculosis, UniProt P9WHJ3); experiment: Fluorescence Cell-Free Homogeneous Dose Retest to Identify Inhibitors of RecA-Intein Splicing Activity. [Related pubchem assays (depositor defined):AID2097, AID2223, AID489010, AID492950]; type: functional
T2 sequence (P9WHJ3 whole entry): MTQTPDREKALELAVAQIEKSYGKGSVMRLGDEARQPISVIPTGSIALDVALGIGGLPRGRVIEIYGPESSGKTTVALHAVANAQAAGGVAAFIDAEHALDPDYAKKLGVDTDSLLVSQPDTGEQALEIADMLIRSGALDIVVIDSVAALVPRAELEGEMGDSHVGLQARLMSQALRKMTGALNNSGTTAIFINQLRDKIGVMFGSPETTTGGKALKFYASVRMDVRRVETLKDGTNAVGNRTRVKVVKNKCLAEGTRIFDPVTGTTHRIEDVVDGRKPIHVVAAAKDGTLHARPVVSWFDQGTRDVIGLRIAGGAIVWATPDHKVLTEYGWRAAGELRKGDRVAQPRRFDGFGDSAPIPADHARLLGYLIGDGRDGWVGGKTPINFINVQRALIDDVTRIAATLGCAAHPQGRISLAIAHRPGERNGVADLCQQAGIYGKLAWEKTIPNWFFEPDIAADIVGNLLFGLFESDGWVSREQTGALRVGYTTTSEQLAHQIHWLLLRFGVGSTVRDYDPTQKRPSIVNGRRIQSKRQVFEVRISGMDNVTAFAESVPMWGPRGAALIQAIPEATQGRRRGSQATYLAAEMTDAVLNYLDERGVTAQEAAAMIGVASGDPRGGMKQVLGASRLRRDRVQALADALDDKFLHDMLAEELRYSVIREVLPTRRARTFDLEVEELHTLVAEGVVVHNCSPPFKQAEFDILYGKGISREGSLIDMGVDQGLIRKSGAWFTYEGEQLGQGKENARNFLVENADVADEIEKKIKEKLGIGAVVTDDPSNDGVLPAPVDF

[7] = molecular target: T3, Streptokinase A (Streptococcus pyogenes serotype M1, UniProt P10520); experiment: viability-normalized secreted streptokinase activity reduction – plasminogen activation absorbance, OD405, dose response (AID 1914); type: functional, Streptococcus pyogenes M1 GAS;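 note: secreted streptokinase activity via plasminogen activation per viability signal from cell pellet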
T3 sequence (P10520 whole entry): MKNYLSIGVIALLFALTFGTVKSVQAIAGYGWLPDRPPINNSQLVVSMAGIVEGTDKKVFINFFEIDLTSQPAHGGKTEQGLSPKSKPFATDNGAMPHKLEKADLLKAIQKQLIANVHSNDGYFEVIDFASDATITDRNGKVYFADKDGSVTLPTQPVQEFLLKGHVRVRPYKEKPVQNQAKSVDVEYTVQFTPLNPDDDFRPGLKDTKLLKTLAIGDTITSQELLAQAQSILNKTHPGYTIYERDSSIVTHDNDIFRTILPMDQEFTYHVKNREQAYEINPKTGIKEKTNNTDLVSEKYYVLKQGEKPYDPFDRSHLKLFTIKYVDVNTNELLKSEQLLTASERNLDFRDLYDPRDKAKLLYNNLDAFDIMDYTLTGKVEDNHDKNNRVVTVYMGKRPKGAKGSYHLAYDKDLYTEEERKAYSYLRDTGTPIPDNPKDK

[8] = tested on: Streptococcus sp. 'group A'; experiment: Streptococcus pyogenes SK(-)GAS viability under kanamycin – luminescence, BacTiterGlo, confirmation, counter-screen for streptokinase expression inhibitor project, dose response (AID 1900); type: functional, organism-based
[9] = tested on: Streptococcus; experiment: GAS UMAA2166 growth inhibition – luminescence, BacTiterGlo, counter-screen for streptokinase expression inhibitor project, dose response (AID 1915); type: functional, organism-based;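 note: potency for reduction of bacterial viability or growth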
[10] = cells; type: functional
[11] = Luminescence Cell-Based Dose Retest to Confirm Inhibitors of Cancer Stem Cells. [Related pubchem assays (depositor defined):AID2717, AID2721]; type: functional; details: Homo sapiens
[12] = molecular target: Cytochrome P450 2C9 (Homo sapiens, UniProt P11712)
Sequence of Cytochrome P450 2C9 (P11712 whole entry): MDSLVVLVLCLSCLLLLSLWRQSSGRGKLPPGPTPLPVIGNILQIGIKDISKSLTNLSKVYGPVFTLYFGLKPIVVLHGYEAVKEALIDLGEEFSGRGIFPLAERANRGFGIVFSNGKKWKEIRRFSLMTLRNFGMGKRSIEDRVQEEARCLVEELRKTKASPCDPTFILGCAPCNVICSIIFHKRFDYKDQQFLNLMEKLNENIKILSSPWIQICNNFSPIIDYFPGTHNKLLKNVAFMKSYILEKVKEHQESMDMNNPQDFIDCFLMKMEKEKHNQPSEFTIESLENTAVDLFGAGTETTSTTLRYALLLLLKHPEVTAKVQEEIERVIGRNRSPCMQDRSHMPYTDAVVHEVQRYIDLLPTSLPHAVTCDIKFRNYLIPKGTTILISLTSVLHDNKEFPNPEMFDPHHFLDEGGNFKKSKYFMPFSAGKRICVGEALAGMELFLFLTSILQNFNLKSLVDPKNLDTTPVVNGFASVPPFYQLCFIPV

[13] = molecular target: T4, Heat shock factor protein 1 (Mus musculus, UniProt P38532); experiment: decrease of HSF1-responsive luciferase luminescence – cell-based, NIH3T3, dose retest, confirmation (AID 2382); type: functional;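 note: NIH3T3 fibroblasts with HSF1-driven luciferase reporter stressed by proteasome inhibitor MG132; luminescence from HSF1-driven luciferase expression after 8 hours of MG132 stress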
T4 sequence (P38532 whole entry): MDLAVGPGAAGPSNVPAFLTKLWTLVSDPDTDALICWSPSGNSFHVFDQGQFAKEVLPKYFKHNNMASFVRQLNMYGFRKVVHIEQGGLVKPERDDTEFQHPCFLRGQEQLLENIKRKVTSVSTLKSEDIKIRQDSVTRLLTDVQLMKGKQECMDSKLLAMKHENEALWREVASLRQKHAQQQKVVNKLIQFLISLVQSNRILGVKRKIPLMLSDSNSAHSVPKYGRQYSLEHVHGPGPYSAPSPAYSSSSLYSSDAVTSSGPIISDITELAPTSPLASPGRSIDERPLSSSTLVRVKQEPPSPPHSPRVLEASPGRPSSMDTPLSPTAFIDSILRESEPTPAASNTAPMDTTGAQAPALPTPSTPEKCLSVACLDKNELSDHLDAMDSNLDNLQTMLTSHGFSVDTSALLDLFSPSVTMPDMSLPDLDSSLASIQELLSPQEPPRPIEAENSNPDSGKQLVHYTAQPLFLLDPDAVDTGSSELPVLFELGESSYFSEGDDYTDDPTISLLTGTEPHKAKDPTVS

In the case of `COC(=O)[C@H]1[C@@H](O)[C@@]2(O)c3c(OC)cc(OC)cc3O[C@@]2(c2ccc(OC)cc2)[C@@H]1c1ccc(F)cc1`, the AC50 [1] was 0.465 µM (active).
For `Cc1cc(-n2c(SCC(=O)NCc3cccs3)nc3nnc(C)c-3c2N)ccc1Cl`, the EC50 [2] was > 120 µM (not active), the EC50 [3] was 14.4 µM (active) and the EC50 [4] was 15.3 µM (active).
For `COc1ccc(C(=O)NC2CCCc3c2cnn3-c2ccccc2F)o1` (stereo not drawn), the EC50 [2] was 18.9 µM (active), the EC50 [3] was 41 µM (active) and the EC50 [4] was 22.2 µM (active).
For `COCc1n[nH]c2c1C(c1ccc(OC)c(OC)c1)C(C#N)=C(N)O2` (stereo not drawn), the AC50 [5] was 9.47 µM (active) and the EC50 [6] was 6.25 µM (active).
In the case of `CC(C)(C)c1ccc(OCCCC(=O)NC2=NCCS2)cc1`, the EC50 [7] was > 150 µM (not active), the EC50 [8] was 19.8 µM (active) and the EC50 [9] was > 150 µM (not active). The IC50 [10] was 20.1 µM (active).
With `Cc1nn(Cc2ccccc2)c2c1C(c1ccncc1)C(C#N)=C(N)O2` (stereo not drawn) the AC50 [5] was 11.1 µM (active) and the EC50 [6] was 3.43 µM (active).
In the case of `CCN(CC)c1ccc(/C=N/n2c(S)nnc2-c2ccccc2Br)cc1`, the EC50 [2] was > 120 µM (not active), the EC50 [3] was > 120 µM (not active) and the EC50 [4] was > 120 µM (not active).
In the case of `C=C(C)COc1ccc(-c2n[nH]c(C)c2-c2ccccc2)c(O)c1`, the EC50 [7] was 7.78 µM (active).
For `CC(=O)Nc1ccc(NC(=O)CSc2ncc(C(=O)Nc3ccccc3)c(=O)n2C)cc1`, the AC50 [5] was 0.131 µM (active), the EC50 [6] was 0.043 µM (active) and the AC50 [11] was 5.28 µM (active).
In the case of `O=C(Nc1cccc(Cl)c1Cl)c1snnc1-c1ccccc1`, the AC50 [12] was 3.16 µM (inconclusive) and the EC50 [13] was > 195 µM (not active).
For `CCC(=O)Oc1ccc2c(C)cc(=O)oc2c1C(=O)c1ccccc1`, the AC50 [1] was 42.4 µM (active).
In the case of `C[C@H]1CN([C@@H](C)CO)C(=O)Cc2cc(NC(=O)Nc3ccc4c(c3)OCO4)ccc2O[C@@H]1CN(C)Cc1ccc(-c2ccccc2)cc1`, the AC50 [1] was 5.45 µM (active).
For `O=C1/C(=C/c2ccc(F)cc2)SC(=S)N1CC(=O)N1CCCCC1c1cccnc1` (stereo not drawn), the AC50 [5] was 13.1 µM (active) and the EC50 [6] was 30.3 µM (active).
For `CCCCc1ccc(NC(S)=NCCc2ccc(F)cc2)cc1`, the EC50 [7] was 45 µM (active) and the EC50 [9] was > 150 µM (not active).
With `CCNc1ccc(C(=O)N/N=C/c2c(C)nn(-c3ccccc3)c2N2CCCC2)cc1[N+](=O)[O-]` the EC50 [2] was 12.7 µM (active), the EC50 [3] was 18.5 µM (active) and the EC50 [4] was 30.6 µM (active).
With `CC(=O)c1sc(NC(=O)CCS(=O)(=O)c2ccc(Cl)cc2)nc1C` the AC50 [1] was 5.01 µM (active).
With `CCOc1ccc(NC(=O)C(c2ccccn2)N(C(=O)CCl)c2ccc(F)cc2)cc1` (stereo not drawn) the AC50 [5] was 7.1 µM (active) and the EC50 [6] was 2.67 µM (active).
With `CCc1ccc(C(=O)NC(CCSC)C(=O)OC)cc1` (stereo not drawn) the EC50 [13] was > 195 µM (not active).
With `CC(NC(=O)C12CC3CC(CC(C3)C1)C2)C(=O)N/N=C/C1=C(N2CCOCC2)C(=C\c2ccccc2)/CC1` (stereo not drawn) the EC50 [2] was > 120 µM (not active), the EC50 [3] was 15.7 µM (active) and the EC50 [4] was 16.4 µM (active).
With `Cc1ccc(NC(=O)COC(=O)Cn2cnc3ccccc32)cc1S(=O)(=O)N(C)C` the EC50 [13] was > 195 µM (not active).
In the case of `CCOc1ccccc1CNC(=O)CCn1ccc2cc(S(=O)(=O)N3CCCCC3)ccc21`, the EC50 [13] was > 195 µM (not active).
With `CCOc1ccccc1OCCOCCOc1c(Cl)cccc1Cl` the EC50 [13] was > 195 µM (not active).
For `O=C(Cn1cnc2c(oc3nc4c(cc32)CCCC4)c1=O)Nc1cccc(Cl)c1`, the EC50 [2] was > 120 µM (not active), the EC50 [3] was 13 µM (active) and the EC50 [4] was 10.2 µM (active).
With `CCOc1ccc(S(=O)(=O)N2CCCC(C(=O)NCc3cccnc3)C2)cc1C` (stereo not drawn) the EC50 [2] was 65.6 µM (active), the EC50 [3] was 14.2 µM (active) and the EC50 [4] was 19.3 µM (active).
With `COc1cc(/C=N/NC(=O)CC2(C)OCCCO2)ccc1OCc1ccccc1` the AC50 [5] was 2.64 µM (active) and the EC50 [6] was 0.81 µM (active).
For `CCOC(=O)c1ccc(NC(=S)NC(=O)C2CCCC2)cc1`, the EC50 [13] was > 195 µM (not active).
In the case of `CCc1cc(C(=O)N2CCCC(CCC(=O)NCc3cccc(OC)c3)C2)no1` (stereo not drawn), the EC50 [7] was > 150 µM (not active), the EC50 [8] was > 150 µM (not active) and the EC50 [9] was > 150 µM (not active).
In the case of `O=C(CCc1ccc(S(=O)(=O)NCc2ccccc2)cc1)NCc1ccco1`, the AC50 [1] was 47.9 µM (active).
For `NS(=O)(=O)c1ccc(NN=C2C(=O)NC(=S)NC2=O)cc1`, the AC50 [5] was 51.7 µM (active) and the EC50 [6] was 15.5 µM (active).
